Test results taken from patent US20110060000A1, “ACRIDINE ANALOGS IN THE TREATMENT OF GLIOMAS” (priority 2009, published 2011).
“Also recorded” adds a separate entry of the source. Like-named read-outs stand apart in the source and are kept apart here.

What was measured:
[1] = test system: U87-MG cells; test: Cell viability / gliotoxicity in U87-MG; type: cell-based
Description: (§1) Cells were treated for 48 hours accordingly to axis labels. At the end of the incubation time cells were prepared for the assay according to the manufacturer instructions. Luminescence values were then converted to % of survival.
(§2) Cells were treated for 48 h with the indicated concentrations of the agents. Astrocytes death was limited to 30% or lower. Suprisingly, C6 death was 3 folds higher than in astrocytes at 24 h and increased at 5 folds at 48 h. Data in U78-MG are similar to the C6 data although the effect was slightly lower but always at least 2 to 4 folds the effect seen in astrocytes.
In order to verify how the hypersensitivity of this signaling pathway in glioma cells affects the survival of the cells, viability assessments were performed using at least three unrelated biochemical tests. Initially, a commercially available kit (Cell Titer Glow) was used in the high throughput screening center for cytotoxicity screening. This test is amenable to high throughput screening techniques and, therefore, can be used for follow up of selected compounds in high or medium throughput settings. […] Since, THAP inhibits SERCA, an ATPase, and it can affect ATP levels directly the effect of THAP and TUN on these 3 cells types was also assessed using a commercially available kit that assesses metatetrazolium salts conversion (XTT). XTT assesses cell viability by probing mitochondrial integrity. […] Finally, viability of U87-MG was also assessed using a system measuring the activity of a house keeping cytosolic enzyme involved in glucose metabolism. Also using this detection system it was evident that glioma cells both C6 and U87-MG were greatly affected by induction of ERSR (FIG. 13). It is well known that prolonged ERSR leads to apoptosis, even in the presence of elevated GRP78 expression if that is coupled to significant protein unfolding. In rat cells this process is actuated via caspase 12 and ultimately via caspase 3 activation. […]

[2] = test system: C6 cells; test: Cell viability / gliotoxicity in C6; type: cell-based; details: for C6 death relative to astrocytes: cytoplasmic exosaminidase; for inhibition of XTT conversion compared with astrocytes: C6, 24 hours of treatment
Description: as §1, §2
In order to verify how the hypersensitivity of this signaling pathway in glioma cells affects the survival of the cells, viability assessments were performed using at least three unrelated biochemical tests. Initially, a commercially available kit (Cell Titer Glow) was used in the high throughput screening center for cytotoxicity screening. This test is amenable to high throughput screening techniques and, therefore, can be used for follow up of selected compounds in high or medium throughput settings. […] Since, THAP inhibits SERCA, an ATPase, and it can affect ATP levels directly the effect of THAP and TUN on these 3 cells types was also assessed using a commercially available kit that assesses metatetrazolium salts conversion (XTT). XTT assesses cell viability by probing mitochondrial integrity. […] Finally, viability of U87-MG was also assessed using a system measuring the activity of a house keeping cytosolic enzyme involved in glucose metabolism. Also using this detection system it was evident that glioma cells both C6 and U87-MG were greatly affected by induction of ERSR (FIG. 13). It is well known that prolonged ERSR leads to apoptosis, even in the presence of elevated GRP78 expression if that is coupled to significant protein unfolding. In rat cells this process is actuated via caspase 12 and ultimately via caspase 3 activation. Experiments were conducted in order to determine if the observed effect on cell viability was also paralleled by caspase 12 activation, and if there were differences, as indicated by preliminary viability data, between normal and glioma cells.

[3] = test system: GRP78 promoter; test: GRP78-luc reporter assay in stably transfected U87-MG clone A5; type: cell-based, human; details: for GRP78 promoter driven luciferase (GRP78-luc) expression: result in words
Description: The promoter region contains the sequence of the GRP78 promoter from −139 to +7. In this part of the promoter there are three ER stress responsive elements and the TATA box to which is linked in frame the firefly luciferase sequence.
Compounds were plated in half area 96 well plates at the final concentration of 2 μM in 5 μl of media. Cells were added in 45 μl afterwards at the density of 5000/well. Plates were read after 16 h in an Envision high efficiency plate reader. Results are represented as a plate layout in which different shadings indicate the different rows and the number indicate the different lines. As a standard negative and positive controls were located in the outer columns.
A construct coding a large part of the human GRP78 promoter, attached to the reporter gene firefly luciferase was used (see FIG. 16 for a schematic) (Yoshida et al., 1998).
The promoter region contains the sequence of the GRP78 promoter from −139 to +7. In this part of the promoter there are three ER stress responsive elements and the TATA box to which is linked in frame the firefly luciferase sequence (FIG. 16)(Yoshida et al., 1998). The construct, which was cloned in an expression vector, was transfected into E. Coli, amplified, purified and checked it by enzymatic digestion. Thereafter, C6 and U87-MG were transiently transfected with the plasmid. After 24 hours the cells were challenged with THAP and TUN for 24 hours. Although, in transient transfection only a small part of the cell population expresses the transduced gene, a significant induction by THAP and TUN was detected over 24 hours. Armed with these encouraging data human glioma cells U87-MG were transfected with both the above described construct and a construct carrying resistance to blasticidin. The sensitivity of these cells to the antibiotic has previously been assessed. 24 hours after the transfection the antibiotic at its 75% inhibitory concentration was added. The cells were given time to proliferate. Two pools called P2 and P5 were selected and luciferase expression was assessed. […] Clones from these two pools were isolated. Luciferase expression in the clones was characterized and a clone called A5, in which baseline expression of the construct was reasonably low and induction with two positive controls was large and consistent, was selected. This clone, several back up clones, and the pools were amplified and frozen in sufficient amounts to guarantee continuity in case needed. Next, the effect of the incubation time on luciferase induction was assessed. Since this assay can be affected by false negative due to toxicity of hit compounds, the incubation times were kept as short as possible. Therefore, several incubation times were tested, including 8, 16 and 24 h. The goal was not to incubate longer than 24 hours because toxicity starts to develop at that time point. […] At this time point the induction is about 6-7 fold. Previously, using a different assay, a half a million compound library was screened very easily using 2.5 thousands cells per well in 1536 plates. […] With this cell number the dynamic range is large and the fold of induction of 6-7 is maintained.
It is common practice in the field of high throughput screening to assess the so called z number of the assay. This statistical parameter indicates the suitability of a given assay for high throughput screening. The z-value in a word describes the likelihood of a single point hit not to be false positive. The z value is a number lower than or equal to one. Values above 0.5 indicate a robust assay. Values below 0.5 but above 0 indicate an assay that probably needs to be run in duplicate. Negative values indicate assays whose predictability is very low. Z values are usually determined in a high density format plate usually a 96 well plate in manual conditions or a 384-1536 plate format in automated liquid handling environment. Z value determination has been performed using half area 96 well plates in manual mode. […]

[4] = same concentration range as GRP78-luc increase

Compound	cytotoxicity compared with astrocytes (Cell Titer Glow, ATP content) [1]	cytotoxicity compared with astrocytes (Cell Titer Glow, ATP content) [2]	C6 death relative to astrocytes ([2]; 24 h)	C6 death relative to astrocytes ([2]; 48 h)	inhibition of XTT conversion compared with astrocytes [2]	GRP78 promoter driven luciferase (GRP78-luc) expression [3]	gliotoxicity in U87-MG [1, 4]	gliotoxicity in C6 [2, 4]	concentration up to which GRP78-luc expression increased, after which the toxic effect was preponderant [3]	hit in Prestwick library screening (value above average of negative controls + 3 SD) ([3]; 2 μM, 5000 cells/well, read after 16 h)	cytotoxicity compared with astrocytes (Cell Titer Glow, ATP content) ([1]; U87-MG, 48 hours)	cytotoxicity compared with astrocytes (Cell Titer Glow, ATP content) ([2]; C6, 48 hours)
C/C=C(/C)C(=O)O[C@H]1C(C)=C2[C@H]([C@@H]1OC(=O)CCCCCCC)[C@@](C)(OC(C)=O)C[C@H](OC(=O)CCC)[C@@]1(O)[C@H]2OC(=O)[C@@]1(C)O [THAP, thapsigargin]	significantly higher cytotoxicity	significantly higher cytotoxicity	3 folds	5 folds	significantly higher inhibition of XTT conversion than astrocytes	increase of luciferase expression; also recorded: concentration dependent increase						
CCN(CC)CCCC(C)Nc1c2ccc(Cl)cc2nc2ccc(OC)cc12 (stereo not shown) [quinacrine]							killed very effectively	killed very effectively	up to 10 μM	potentially attractive lead compounds		
tunicamycin			3 folds	5 folds	significantly higher inhibition of XTT conversion than astrocytes	increase of luciferase expression; also recorded: concentration dependent increase					significantly higher cytotoxicity	significantly higher cytotoxicity
